# Source: patent US20230052740A1, “MODULATORS OF CIRCADIAN RHYTHMS AND USES THEREOF” (The Regents of the University of California, priority 2019, published 2023)
# pEC50: −log10 of the molar value. Read-outs that look alike come from different tables or passages of the source.
# Legend:
# hMT1 [1] = molecular target: T1, hMT1 (Homo sapiens, UniProt P48039); assay: 2-[125I]-iodomelatonin competition binding, CHO cell membranes; details: CHO-hMT1; affinity shift by G protein inactivation
# Description: For receptor binding studies, '7447 was dissolved in 50% DMSO/50% ethanol for 13 mM stock solution, diluted 1/10 in 100% ethanol then 1/10 again in 50% ethanol/50% Tris-HCl buffer. Both '3384 and '4226 were dissolved in 100% ethanol for 13 mM stock solutions and then diluted 1/10 in 50% ethanol/50% Tris-HCl buffer. Further dilutions were done in Tris-HCl buffer.
# Assays were incubated for 1 hour at 25° C. Bound radioligand was separated from freeby rapidvacuum filtration using glass microfiber filters (Whatman, Krackeler Scientific, Inc., Albany N.Y., USA) saturated in 0.5% polyethylenimine solution.
# Affinity shifts or lack thereof with G protein inactivation indicate apparent efficacy (Lefkowitz, R. J. et al., J Biol Chem 251, 4686-4692, 1976) as ligands are classified as agonists (ΔpKi% MLT>20%), antagonists (ΔpKi% MLT<20%, >−20%), or inverse agonists (ΔpKi% MLT<−20%) accordingly.
# C3H/HeN mice = assay: Re-entrainment of running wheel activity after 6 h advance of dark onset (jet-lag model); assay type: in vivo; details: 30 μg/mouse s.c., 3 days, WT; in words
# Source text: Male and female C3H/HeN (C3H) wild-type (WT), MT1 knockout (MT1KO), and MT2 knockout (MT2KO) mice (average 6.28 months) used in this study were raised in our breeding colony at University at Buffalo. […] Genotype was confirmed using tail samples at the end of each experiment and was verified periodically during the tenure of the colony. The strains of mice in our breeding colony were re-derived periodically by backcrossing with WT mice to reduce genetic drift.
# Mice were group housed (3-5 per cage) with corncob bedding in polycarbonate translucent cages (30×19 cm) and maintained in a 14/10 light-dark (LD) cycle (Zeitgeber time 0 or ZT0 corresponds to Lights ON and ZT 14 to Lights OFF) in temperature and humidity controlled rooms with ad libitum access to food and water in the Laboratory Animal Facility at the University at Buffalo. Light levels were 200-300 lux at the level of the cage. Treatments and animal care performed in the dark were under a dim red safelight (15 watts, Kodak 1A filter) with illuminance of less than 3-5 lux (Benloucif, S. & Dubocovich, M. L. J Biol Rhythms 11, 113-125, (1996). All experimental procedures using mice were conducted in accordance with guidelines set forth by the National Institutes of Health and approved by the University at Buffalo Institutional Animal Care and Use Committee.
# Circadian rhythm phase was determined for each mouse using the onset of running wheel activity defined as CT12 (Circadian Time 12). Running wheel activity was measured continuously via magnetic microswitches detecting wheel revolutions with a computer equipped with Clocklab data collection Software™ (Actimetrics: Wilmette, Ill.). All actigraphy data was visualized and analyzed using ClockLab™ and MATLAB™ software. All mice were individually housed in cages (33×15 cm) equipped with running wheels in light-tight ventilated cabinets with controlled temperature and LD cycles (Phenome Technologies: Skokie, Ill.). Male and female mice were housed in separate cabinets for all experiments.
# Male and female C3H WT, MT1KO, and MT2KO mice (3 to 6 months) were maintained under a 12:12 LD cycle for at least 2 weeks prior experimental manipulations to allow stable entrainment to dark onset before advance of the LD cycle. Actigraphy data was recorded as described above and all experiment protocols performed as described (Dubocovich, M. L. et al., J Pineal Res 39, 113-120, 2005). On the first day of treatment, the dark onset was advanced 6 h. […] Post treatment, mice were given 14-20 days to re-entrain running wheel activity onsets to the new dark onset. Using exported running wheel activity onsets from actograms, onset hours advanced each day were determined by subtracting this value each day from the average onset of running wheel activity for 3 days prior to treatment for each mouse. Further, using the data from this calculation combined with visualization of actograms, the number of days to reach stable re-entrainment was determined for each mouse.
# All statistical analyses as described in further detail for each experiment were conducted using GraphPad Prism 8™ (La Jolla, Calif.). All data sets were visualized for normality using QQ plots of predicted vs. actual residuals. Actigraphy data was generated for visualization blind to treatment prior to the quantification and statistical analysis stages. […] Data in FIGS. 4F & 4G were compared via a two-way ANOVA (3×2: genotype x treatment) with Tukey's post hoc analyses (P<0.05). […]
# hMT1 [2] = molecular target: T1, hMT1; assay: cAMP assay (GloSensor), isoproterenol-stimulated cAMP in HEK cells; assay type: cell-based; set-up: expressed in transfected cells; host or cells: HEK-T (HEK-293 T) cells, co-transfected with GloSensor DNA; details: agonist; for Emax: normalized to melatonin response, read-out: MT1 % Emax (converted)
# Description: HEK-293 T cells were maintained with complete Dulbecco's modified Eagle's medium (DMEM), which is composed of 10% fetal bovine serum (FBS), 2 mM L-glutamine, 100 units/ml penicillin G, 100 μg/ml streptomycin at 37° C. in the presence of 5% CO2
# (§1) MT1 and MT2 receptors were tested using Promega's spilt luciferase based GboSensor cAMP biosensor technology. HEK-T cells were plated in 15 cm cell culture dish (at a density of 18 million cells) containing DMEM composed of 10% dialyzed FBS, 2 mM L-glutamine, 100 units/ml penicillin G, 100 μg/ml streptomycin for 4-6 hour. Then, cells were co-transfected with 8 μg of construct which encodes either MT1 or MT2 (de-Tangonized constructs) and […] of Glosensor DNA. Next day, transfected cells were seeded into poly-L-lysinecoated 384-well white clear bottom cell culture plates with complete DMEM with 1% dialized FBS at a density of 20,000 cells per well for another 24 h. The next day, cell medium were discarded and loaded with 20 μl of assay buffer (1×HBSS, 20 mM HEPES, pH 7.4, 0.1% BSA). To measure agonist activity of MT1 or MT2 receptor, 10 μl of test compound solution at 3× final concentration was added for 15 minutes followed by addition of 10 μl of luciferin/isoproterenol mixture (at a final concentration of 4 mM and 200 nM respectively) for another 15 mins for luminescence quantification. Then, plates were counted using SpectraMax luminescence reader (Molecular Device). Data were analyzed using GraphPad Prism 6.0.
# MT2 [3] = molecular target: T2, MT2 (Homo sapiens, UniProt P49286); assay: as above; assay type: cell-based; set-up: expressed in transfected cells; host or cells: HEK-T (HEK-293 T) cells, co-transfected with GloSensor DNA; details: for Emax: normalized to melatonin response, read-out: MT2 % Emax (converted)
# T2 sequence (P49286 1-362): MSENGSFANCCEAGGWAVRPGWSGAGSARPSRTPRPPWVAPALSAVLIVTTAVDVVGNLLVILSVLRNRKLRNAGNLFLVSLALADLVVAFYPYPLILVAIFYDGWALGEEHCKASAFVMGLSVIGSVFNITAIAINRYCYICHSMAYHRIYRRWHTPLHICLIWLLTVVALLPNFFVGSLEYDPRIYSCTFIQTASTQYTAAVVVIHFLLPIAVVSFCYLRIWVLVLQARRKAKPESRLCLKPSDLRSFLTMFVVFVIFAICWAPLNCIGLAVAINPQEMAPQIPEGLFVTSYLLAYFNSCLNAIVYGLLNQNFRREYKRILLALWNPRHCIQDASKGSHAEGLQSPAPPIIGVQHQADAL
# Description: as §1, with “Next day, transfected cells were seeded into poly-L-lysinecoated 384-well white clear bottom cell culture plates with complete DMEM with 1% dialized FBS at a density of 20,000 cells per well for another 24 h.” left out
# MT2 [4] = molecular target: T2, MT2; assay: Ligand bias quantification (G protein vs β-arrestin pathway, melatonin as reference); assay type: cell-based; set-up: expressed in transfected cells; host or cells: HEK-T cells (Gi/cAMP arm) and HTLA cells (β-arrestin Tango arm); details: at MT2; bias factor 10^ΔΔLog(Emax/EC50)
# T1 sequence (P48039 whole entry): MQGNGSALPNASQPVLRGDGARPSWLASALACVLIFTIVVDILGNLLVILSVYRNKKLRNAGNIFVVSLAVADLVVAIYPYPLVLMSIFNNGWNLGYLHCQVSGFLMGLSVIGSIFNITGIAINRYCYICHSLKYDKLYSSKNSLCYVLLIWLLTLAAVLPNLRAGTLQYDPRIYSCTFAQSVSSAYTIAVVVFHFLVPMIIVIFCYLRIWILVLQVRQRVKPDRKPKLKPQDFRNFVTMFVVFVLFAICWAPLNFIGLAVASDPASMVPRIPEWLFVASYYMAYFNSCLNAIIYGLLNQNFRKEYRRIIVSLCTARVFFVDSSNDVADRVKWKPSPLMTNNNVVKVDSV
smiles,measurement,setting,value
"COc1ccc2[nH]cc(CCNC(C)=O)c2c1 [Melatonin, reference compound]",ΔpKi (pKi control − pKi inactive),hMT1 [1],1.19
same,rate of re-entrainment to the new light-dark cycle,C3H/HeN mice,accelerated re-entrainment
COc1ccc2c(c1)N(Cc1ccc(C#N)c(OC)c1)CCO2 [ZINC442850041],Emax,"hMT1 [2]; HEK293, Table 1",99%
same,MT1 pEC50,hMT1 [2]; Table 1,7.91 ± 0.04
same,selectivity for the MT2 receptor,MT2 [3],25 fold
same,Emax,"MT2 [3]; HEK293, Table 1, agonist",97%
same,pEC50,"MT2 [3]; agonist, read-out: EC50 at MT2",9.33
same,Bias,MT2 [4],0.046
COc1ccc2c(c1)N(Cc1ccn(C)c(=O)c1)CCO2 [ZINC608506688],Emax,"hMT1 [2]; HEK293, Table 2",99%
same,MT1 pEC50,hMT1 [2]; Table 2,9.78 ± 0.13
same,Emax,"MT2 [3]; HEK293, Table 2, agonist",89%
same,MT2 pEC50,"MT2 [3]; Table 2, agonist",8.60 ± 0.10
same,Bias,MT2 [4],8.2
